According to patent publication US6171786A, “Methods for preventing multidrug resistance in cancer cells” (priority 1996, dated 2001):
“Also recorded” adds a separate entry of the source.

How the values were obtained:
MDR1 expression [1] = assay: Induction of MDR1 expression by agents that increase intracellular Ca2+; assay type: cell-based, human; details: H9 cells, 10 hrs
Protocol: H9 cells were seeded into each well of 6-well plates (10^5 cells/well in 3 mL of RPMI-1640 medium/10% fetal bovine serum/2 mM L-glutamine/100 U/mL penicillin and 100 μg/mL streptomycin). Experimental cultures were treated with either the calcium-specific ionophore A23187 or an inhibitor of Ca^2+ -dependent ATPase, thapsigargin. Cells were incubated with 10 μM A23187 or 10 μg/mL thapsigargin for 10 hrs at 37° C., 5% CO2 in a humidified atmosphere. Negative control cultures were incubated as above without the addition of either A23187 or thapsigargin.
After each incubation was complete, steady-state levels of MDR1- and β2 -microglobulin mRNA (internal standard) were determined by RT-PCR as described above in Example 4. PCR products were then analyzed in 7.5% polyacrylamide gel electrophoresis and autoradiographed. […] The absence of the MDR1-specific band and presence of the β2 -microglobulin specific band was consistent with the results on uninduced H9 cells shown above in Examples 4 and 5 and FIGS. 7A through 7F.

[2] = system: MDR1 expression (P-glycoprotein); assay: Induction of MDR1 expression by cytotoxic drugs (dye efflux, UIC2, cDNA-PCR); assay type: cell-based, human; details: for maintenance of MDR1 expression after removal of drug: K562 subpopulation
Protocol: (Commercially-available kits (for example, from GIBCO/BRL, Gaithersburg, Md.) can be advantageously modified for making cDNA using random hexamers.) PCR is then performed using the following primers: […]
(where β2 M represents β2 microglobulin). PCR was performed for β2 M experiments under a regime consisting of 1 cycle comprising denaturation at 94° C. for 3 minutes, primer annealing at 60° C. for 30 seconds, and primer extension at 72° C. for 1 minute, followed by 19 cycles comprising denaturation at 94° C. for 30 seconds, primer annealing at 60° C. for 30 seconds, and primer extension at 72° C. for 1 minute, followed by a final cycle comprising denaturation at 94° C. for 30 seconds, primer annealing at 60° C. for 30 seconds, and primer extension at 72° C. for 5 minutes. MDR1 cDNA sequences were amplified using the identical protocol as for β2 M, but extending the amplification from 19 cycles to 25 cycles. In addition, the cDNA-PCR amplification protocol contained the following modifications: (i) Taq DNA polymerase was added to the PCR mixtures after initial heating of the samples to 94° C. (ii) The yield of the β2 -microglobulin-specific band, obtained after 22-28 cycles of PCR, was used as the primary criterion for equalizing the starting amounts of the cDNA templates in different preparations, in order to account for differential RNA degradation in cells subjected to different types of treatment. ^32 P-labeled PCR products were detected by autoradiography.
In particular PKC is activated by treatment with Ara-C. Therefore, experiments were performed to test whether Ara-C, which is not transported by P-glycoprotein, would have any effect on P-glycoprotein function in K562 leukemia cells.
Also assayed was whether drug-induced MDR1 expression was maintained after cytotoxic drug treatment. […] At different times, MDR1 expression in the surviving cells was analyzed by dye efflux and immunofluorescence labeling with UIC2 (FIG. 3C) or by cDNA-PCR (FIG. 4E).

MRP expression = assay: Inhibition of MRP mRNA expression in H-9 cells (cDNA-PCR); assay type: cell-based, human; design: Inhibition of MRP expression: key to the marks not given beside the values
Protocol: Cells were plated in 6-well Falcon tissue culture plates at 3,300 cells per well, and incubated in the appropriate concentrations of drugs. Each of the protein kinase inhibitors to be tested were added at their appropriate final concentrations, and the cells then incubated for 10 hours at 37° C. under an atmosphere of 5% CO2.
PCR was performed using the following primers: […]
(where β2 M represents β2 microglobulin). PCR was performed for β2 M experiments under a regime consisting of 1 cycle comprising denaturation at 94° C. for 3 minutes, primer annealing at 60° C. for 30 seconds, and primer extension at 72° C. for 1 minute, followed by 19 cycles comprising denaturation at 94° C. for 30 seconds, primer annealing at 60° C. for 30 seconds, and primer extension at 72° C. for 1 minute, followed by a final cycle comprising denaturation at 94° C. for 30 seconds, primer annealing at 60° C. for 30 seconds, and primer extension at 72° C. for 5 minutes.
H-9 cells were used to analyze the effect of various protein kinase inhibitors on the expression of the multidrug resistance associated protein MRP (Grant et al., ibid.).

MDR1 expression [3] = assay: Inhibition of cytotoxic drug-induced MDR1 expression by inhibitors of NF-κB activation; assay type: cell-based, human; details: H9
MDR1 expression [4] = assay: Inhibition of AraC-induced MDR1 expression by phospholipase C inhibitors (RT-PCR); assay type: cell-based, human; details: U73122 1 and 10 μM; H9, 25 μM AraC
Protocol: The inhibitor was added 45 min. prior to the addition of Ara C. Negative control cultures were incubated as above without the addition of either AraC or U73122.
The specificity of phospholipase C-targeted inhibition of MDR1 induction by cytotoxic drugs was determined in a comparative experiment using a known inhibitor of […] phospholipase C (PC-PLC).

MDR1 expression [5] = assay: Inhibition of cytotoxic drug-induced MDR1 expression by protein kinase inhibitors (cDNA-PCR)
Protocol: (§1) Cells were plated in 6-well Falcon tissue culture plates at 3,300 cells per well, and incubated in the appropriate concentrations of drugs. Each of the protein kinase inhibitors to be tested were added at the appropriate final concentration 45 minutes prior to MDR1 induction by the addition of Ara-C or TPA, with the exception of herbimycin A, which was added 12 hours prior to Ara-C or TPA, and tyrphostins A25 and B46, which were each added 16 hours prior to MDR1 induction by the addition of Ara-C or TPA. Cells were incubated overnight (TPA) or for 10 hours (Ara-C) at 37° C./ 5% CO2 after the addition of the MDR1 inducing agents before harvesting for cDNA-PCR analysis.
In addition, the analysis of certain drugs imposed added requirements. For experiments using calphostin C, cells were incubated under direct white light illumination. For experiments using D,L-threo-sphingosine, the cell culture medium was pre-treated with the appropriate concentration of the drug for one hour at 37° C. with continuous gentle mixing. After this pretreatment, cells were resuspended in media supplemented with drug and incubated for 45 minutes as described above.
To further evaluate the capacity of protein kinase inhibitors to suppress MDR1 induction by cytotoxic drugs and PKC agonists, H-9 human T-cell leukemia cells were used in cDNA-PCR assays to examine induced MDR1 mRNA expression levels in the presence of protein kinase inhibitors.

MDR1 expression [6] = assay: Inhibition of TPA- or DOG-induced MDR1 expression; assay type: cell-based, human; details: H-9 cells; 32 μM erbstatin analog
Protocol: PBL were treated with 1 ng/mL TPA; H9 and K562 cells with 10 ng/mL TPA; KG1a and KG1 cells with 100 ng/mL TPA and the other cell lines with 10 ng/mL TPA.
as §1

Molecule: CNc1ccc2oc(C[C@H]3O[C@@]4(CC[C@H]3C)O[C@H]([C@H](C)C(=O)c3ccc[nH]3)[C@H](C)C[C@H]4C)nc2c1C(=O)O [A23187]
- MDR1 expression (RT-PCR) (MDR1 expression [1]; 10 μM): capable of inducing MDR1 gene expression; also recorded: a clear MDR1-specific band was detected

Molecule: Nc1ccn([C@@H]2O[C@H](CO)[C@@H](O)[C@@H]2O)c(=O)n1 [Ara-C, 1-β-D-arabinofuranosylcytosine]
- MDR1 mRNA expression ([2]; EJ bladder carcinoma, 10 μM Ara-C): activated MDR1 mRNA expression
- MDR1 mRNA expression ([2]; H9 T-cell leukemia): a clear MDR1-specific band was detected
- subpopulation of cells that effluxed Rh123 ([2]; K562, Ara-C 12-72 hours): 3-17%
- MDR1 mRNA expression ([2]; K562, cDNA-PCR): dose-dependent increase in MDR1 mRNA expression
- maintenance of MDR1 expression after removal of drug ([2]; drug-free medium): up to 11 weeks
- maintenance of MDR1 expression after removal of drug ([2]; treated 3-5 days then drug-free): maintained for a least several weeks
- MDR1 mRNA expression ([2]; KB-3-1 epidermoid carcinoma): activated MDR1 mRNA expression
- P-glycoprotein expression ([2]; KG1 leukemia cells, 10 μM Ara-C): increased P-glycoprotein expression
- MDR1 induction ([2]; human leukemia and solid-tumor derived cell lines, short-term exposure): MDR1 induction, both at the mRNA and at the protein levels, was observed
- MRP expression (MRP expression; 25 μM Ara-C, data not shown): slight decrease in MRP expression

Molecule: Cc1ccc(S(=O)(=O)N[C@@H](Cc2ccccc2)C(=O)CCl)cc1 [N-tosyl-L-phenylalanine chloromethyl ketone]
- inhibition of MDR1 induction by Adriamycin (2 μM) (MDR1 expression [3]; inhibitor 25 μM): completely abrogate induction of MDR1 gene expression
- inhibition of MDR1 induction by Ara C (25 μM) (MDR1 expression [3]; inhibitor 25 μM): completely abrogate induction of MDR1 gene expression; also recorded: complete suppression of AraC-induced MDR1 expression

Molecule: COc1ccc2c(c1)CC[C@@H]1[C@@H]2CC[C@]2(C)[C@@H](NCCCCCCN3C(=O)C=CC3=O)CC[C@@H]12 [U73122, 1-(6-((1β-3-methoxyestra-1,3,5(10)-trien-17-yl)amino)hexyl)-1-H-pyrrole-2,5-dione]
- inhibition of AraC-induced MDR1 mRNA (MDR1 expression [4]): inhibited the induction of MDR1 mRNA; also recorded: reduced the steady-state levels of MDR1 mRNA

Molecule: CC(=O)Oc1ccccc1C(=O)O [aspirin, acetylsalicylic acid]
- inhibition of MDR1 induction by Adriamycin (2 μM) (MDR1 expression [3]; inhibitor 10 mM): completely abrogate induction of MDR1 gene expression
- inhibition of MDR1 induction by Ara C (25 μM) (MDR1 expression [3]; inhibitor 10 mM): completely abrogate induction of MDR1 gene expression; also recorded: complete suppression of AraC-induced MDR1 expression

Molecule: COc1ccc2c(c[n+](C)c3c4cc5c(cc4ccc23)OCO5)c1OC [chelerythrine]
- inhibition of MDR1 induction by cytotoxic drugs (MDR1 expression [5]): capable of inhibiting MDR1 induction by cytotoxic drugs
- prevention of MDR1 induction by chemotherapeutic drugs (MDR1 expression [5]; 5 μM chelerythrine): prevent MDR1 induction by chemotherapeutic drugs
- inhibition of Ara-C induced MDR1 expression (MDR1 expression [5]; chelerythrine 1 μM and 5 μM, H-9): Progressive dose-dependent inhibition
- MRP expression (MRP expression; 1-5 μM): capable of inhibiting MRP expression; also recorded: strongly inhibited

Molecule: COC(=O)C=Cc1cc(O)ccc1O [methyl-2,5-dihydroxycinnamate]
- inhibition of TPA-induced MDR1 expression (MDR1 expression [6]): completely inhibited TPA-induced MDR1 expression; also recorded: inhibit MDR1 expression induced by treatment of sensitive cells with TPA
- inhibition of Ara-C induced MDR1 expression (MDR1 expression [5]; 32 μM erbstatin analog, H-9 cells): completely inhibit Ara-C induced MDR1 expression
- MRP expression (MRP expression; 32 μM): capable of inhibiting MRP expression; also recorded: strongly inhibited

Molecule: S=C(S)N1CCCC1 [pyrrolidone dithiocarbamate]
- inhibition of MDR1 induction by Ara C (25 μM) (MDR1 expression [3]; inhibitor 20 μM): complete suppression of AraC-induced MDR1 expression
- inhibition of MDR1 induction by Adriamycin (2 μM) (MDR1 expression [3]; inhibitor 100 μM): completely abrogate induction of MDR1 gene expression
- inhibition of MDR1 induction by Ara C (25 μM) (MDR1 expression [3]; inhibitor 100 μM): completely abrogate induction of MDR1 gene expression

Molecule: O=C([O-])c1ccccc1O.[Na+] [sodium salicylate]
- inhibition of MDR1 induction by Adriamycin (2 μM) (MDR1 expression [3]; inhibitor 20 mM): completely abrogate induction of MDR1 gene expression
- inhibition of MDR1 induction by Ara C (25 μM) (MDR1 expression [3]; inhibitor 20 mM): completely abrogate induction of MDR1 gene expression; also recorded: complete suppression of AraC-induced MDR1 expression

Molecule: C/C=C(/C)C(=O)O[C@H]1C(C)=C2[C@H]([C@@H]1OC(=O)CCCCCCC)[C@@](C)(OC(C)=O)C[C@H](OC(=O)CCC)[C@@]1(O)[C@H]2OC(=O)[C@@]1(C)O [thapsigargin]
- MDR1 expression (RT-PCR) (MDR1 expression [1]; 10 μg/mL): capable of inducing MDR1 gene expression; also recorded: a clear MDR1-specific band was detected

Molecule: neomycin sulfate
- inhibition of Ara-C induced MDR1 expression (MDR1 expression [5]; 10 mM neomycin sulfate): inhibit Ara-C induced MDR1 expression; also recorded: completely prevent cytotoxic drug and PKC agonist induction of MDR1 expression
- MRP expression (MRP expression; 10 mM): capable of inhibiting MRP expression; also recorded: strongly inhibited
- Inhibition of MRP expression (MRP expression; 10 mM, 10 h): ++++
